Values of other authors, collected in patent publication US6749867B2, “Delivery system for omeprazole and its salts” (priority 2000, dated 2004).
Where two headings read alike, the source gives them in different places.

Experiments:
[1] = in vivo
[2] = not given; remark: listed apart in the source

COc1ccc2[nH]c([S+]([O-])Cc3ncc(C)c(OC)c3C)nc2c1 (stereo not drawn) [omeprazole, Omeprazole]
plasma half-life [1]: about 60 minutes
solubility in alkaline solution (alkaline solution, as the negatively charged ion): very soluble
solubility in water (water): very slightly soluble
half-life of degradation ([2]; acidic aqueous solutions, pH values below 4): less than 10 minutes
half-life of degradation ([2]; pH 6.5): about 18 hours
half-life of degradation ([2]; pH 11): several hundred
